From patent US9724347B2, “1-pyrazolyl-3-(4-((2-anilinopyrimidin-4-yl)oxy)napththalen-1-yl) ureas as P38 MAP knase inhibitors” (Respivert Ltd., priority 2011, dated 2017)
Marks after values point to notes of the source that are not given here.

How the values were obtained:
[1] = target: p38 MAPKα isoform (MAPK14) (Homo sapiens (Human), UniProt Q16539); test: p38 MAPKα enzyme inhibition (FRET, Z-LYTE); assay type: biochemical
[2] = test system: d-U937 cells; test: Cell viability: MTT assay; assay type: cell-based, human; conditions: 1 μg/mL
Summary of the method: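 Differentiated U937 cells exposed to compound at 1 or 10 μg/mL final, either 4 h in 5% FCS RPMI1640 or 24 h in 10% FCS RPMI1640. After medium replacement, MTT added 1 h, formazan dissolved in DMSO, A550 read. % viability loss vs 0.5% DMSO vehicle; apparent viability gain shown as negative %.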

[3] = target: p38MAPKγ (MAPK12) (Homo sapiens (Human), UniProt P53778); test: p38 MAPKγ enzyme inhibition (FRET, Z-LYTE); assay type: biochemical
Summary of the method: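 Z-LYTE FRET kinase format on donor/acceptor-labeled synthetic peptide; protease development 1 hr cleaves only non-phosphorylated peptide. Phosphorylation derived from coumarin/fluorescein emission ratio, low ratio indicating high phosphorylation.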

[4] = target: GSK 3α enzyme isoform (Homo sapiens (Human), UniProt P49840); test: GSK 3α enzyme inhibition (FRET, Z-LYTE); assay type: biochemical; conditions: read-out: IC50 Values for Enzyme Inhibition GSK3α
Summary of the method: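 Human GSK3α (500 ng/mL stock) was preincubated 2 h at RT with compound (stocks 4, 0.4, 0.04 or 0.004 μg/mL), then given FRET peptide (8 μM stock) and ATP (40 μM stock) for 1 h. After 1 h protease development, the coumarin/fluorescein emission ratio gave phosphorylation level.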

[5] = test system: PBMC cells; test: Cell mitosis assay; assay type: cell-based, human
Protocol: Peripheral blood mononucleocytes (PBMCs) from healthy subjects were separated from whole blood (Quintiles, London, UK) using a density gradient (Histopaque®-1077, Sigma-Aldrich, Poole, UK). The PBMCs (3 million cells per sample) were subsequently treated with 2% PHA (Sigma-Aldrich, Poole, UK) for 48 hr, followed by a 20 hr exposure to varying concentrations of test compounds. At 2 hr before collection, PBMCs were treated with demecolcine (0.1 μg/mL; Invitrogen, Paisley, UK,) to arrest cells in metaphase. To observe mitotic cells, PBMCs were permeabilised and fixed by adding Intraprep (50 μL; Beckman Coulter, France), and stained with anti-phospho-histone 3 ([…]; #9701; Cell Signalling, Danvers, Mass.) and propidium iodide (1 mg/mL; Sigma-Aldrich, Poole, UK,) as previously described (Muehlbauer P. A. and Schuler M. J., Mutation Research, 2003, 537:117-130). Fluorescence was observed using an ATTUNE flow cytometer (Invitrogen, Paisley, UK), gating for lymphocytes.

[6] = test system: ICAM-1 expression in BEAS2B cells; test: Poly I:C-induced ICAM-1 expression in BEAS2B cells; assay type: cell-based, human; conditions: Homo sapiens, BEAS-2B, read-out: PolyIC/ICAM1 IC50 (BEAS2B)
Summary of the method: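 BEAS2B human bronchial epithelial cells pre-incubated 2 h with compound, then transfected with 1 μg/mL poly I:C plus Oligofectamine. After 18 h, surface ICAM-1 measured by cell-based ELISA (OD450–655), normalised to crystal violet cell count (OD595). Inhibition calculated against vehicle control.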

[7] = test system: HRV16; test: HRV16 induced CPE in MRC5 cells; assay type: cell-based, human rhinovirus; conditions: tested at 0.0008 μg/mL, low cell viability at 0.04 μg/mL
Protocol: The supernatants were aspirated, and then fresh media added followed by incubation for 4 days. Where appropriate, cells were pre-incubated with compound or DMSO for 2 hr, and the compounds and DMSO added again after washout of the virus.
The percentage inhibition for each well was calculated. The IC50 value was calculated from the concentration-response curve generated by the serial dilutions of the test compounds.

Chain of GSK 3α enzyme isoform (P49840 whole entry, canonical isoform): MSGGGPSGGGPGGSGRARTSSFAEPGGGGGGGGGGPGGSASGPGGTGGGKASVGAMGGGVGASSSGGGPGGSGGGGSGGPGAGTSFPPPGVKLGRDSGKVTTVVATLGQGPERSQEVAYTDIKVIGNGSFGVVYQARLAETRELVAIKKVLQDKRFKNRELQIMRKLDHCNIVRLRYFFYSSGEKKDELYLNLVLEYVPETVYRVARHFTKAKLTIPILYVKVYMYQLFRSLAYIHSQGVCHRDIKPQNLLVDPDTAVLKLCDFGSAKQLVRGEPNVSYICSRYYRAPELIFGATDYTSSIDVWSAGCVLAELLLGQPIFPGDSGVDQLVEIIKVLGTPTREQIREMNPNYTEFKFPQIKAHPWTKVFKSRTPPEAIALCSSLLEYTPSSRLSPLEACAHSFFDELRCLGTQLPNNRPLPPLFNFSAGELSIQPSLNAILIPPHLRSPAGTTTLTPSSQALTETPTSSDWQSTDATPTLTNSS
Chain of p38MAPKγ (MAPK12) (P53778 whole entry): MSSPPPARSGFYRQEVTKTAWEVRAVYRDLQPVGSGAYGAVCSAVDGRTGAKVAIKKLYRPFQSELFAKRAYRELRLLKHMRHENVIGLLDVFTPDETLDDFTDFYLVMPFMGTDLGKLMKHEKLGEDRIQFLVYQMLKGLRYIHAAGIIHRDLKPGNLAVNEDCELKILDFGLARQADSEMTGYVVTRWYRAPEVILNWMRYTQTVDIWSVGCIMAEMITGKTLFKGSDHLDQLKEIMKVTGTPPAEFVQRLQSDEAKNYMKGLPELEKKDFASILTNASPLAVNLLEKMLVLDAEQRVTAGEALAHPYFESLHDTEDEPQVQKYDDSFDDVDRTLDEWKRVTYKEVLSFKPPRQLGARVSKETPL
Chain of p38 MAPKα isoform (MAPK14) (Q16539 whole entry, canonical isoform): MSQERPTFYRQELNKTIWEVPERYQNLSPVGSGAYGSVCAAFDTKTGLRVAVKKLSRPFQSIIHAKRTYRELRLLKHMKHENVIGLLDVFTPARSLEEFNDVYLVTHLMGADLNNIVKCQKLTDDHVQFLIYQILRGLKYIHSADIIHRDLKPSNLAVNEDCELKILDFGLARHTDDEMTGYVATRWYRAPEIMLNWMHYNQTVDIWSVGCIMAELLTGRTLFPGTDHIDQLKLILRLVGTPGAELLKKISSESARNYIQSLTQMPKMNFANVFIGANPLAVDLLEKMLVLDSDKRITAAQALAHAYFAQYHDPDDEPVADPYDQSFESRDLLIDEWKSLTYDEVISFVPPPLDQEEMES

With `COc1ccc(-n2nc(C(C)(C)C)cc2NC(=O)Nc2ccc(Oc3ccnc(Nc4ccccc4)n3)c3ccccc23)cc1` [Example 7, 1-(3-(tert-butyl)-1-(4-methoxyphenyl)-1H-pyrazol-5-yl)-3-(4-((2-(phenylamino)pyrimidin-4-yl)oxy)naphthalen-1-yl)urea] the IC50 [1] was 170 nM, the “MTT Assay Cell viability at time point in d-U937 Cells” value (“MTT Assay Cell viability” for short) ([2]; 4 h) was “−ve (−ve and +ve indicate the value is below and above respectively, the no significant effect threshold defined as 30% inhibition at 1 μg/mL at the time point indicated)” and the “MTT Assay Cell viability” value ([2]; 24 h) was “−ve (−ve and +ve indicate the value is below and above respectively, the no significant effect threshold defined as 30% inhibition at 1 μg/mL at the time point indicated)”. For the same compound, the IC50 [3] was 1700 nM, the IC50 [4] was 3500 nM and the “Mitosis Assay % inhibition in PBMC Cells” value ([5]; 5 μg/mL) was 10.2%. For the same compound, the IC50 [6] was 23 nM.

With `Cc1ccc(-n2nc(C(C)(C)C)cc2NC(=O)Nc2ccc(Oc3ccnc(Nc4ccc(O)cc4)n3)c3ccccc23)cc1` [Example 9, 1-(3-(tert-butyl)-1-(p-tolyl)-1H-pyrazol-5-yl)-3-(4-((2-((4-hydroxyphenyl)amino)pyrimidin-4-yl)oxy)naphthalen-1-yl)urea] the IC50 [1] was 171 nM, the “MTT Assay Cell viability” value ([2]; 4 h) was “−ve (−ve and +ve indicate the value is below and above respectively, the no significant effect threshold defined as 30% inhibition at 1 μg/mL at the time point indicated)” and the “MTT Assay Cell viability” value ([2]; 24 h) was “−ve (−ve and +ve indicate the value is below and above respectively, the no significant effect threshold defined as 30% inhibition at 1 μg/mL at the time point indicated)”. The IC50 [3] was 760 nM, the IC50 [4] was 3260 nM and the “Mitosis Assay % inhibition in PBMC Cells” value ([5]; 5 μg/mL) was 50.3%.

For `Cc1ccc(-n2nc(C(C)(C)C)cc2NC(=O)Nc2ccc(Oc3ccnc(Nc4ccc(O)cc4O)n3)c3ccccc23)cc1` [Example 32, 1-(3-(tert-butyl)-1-(p-tolyl)-1H-pyrazol-5-yl)-3-(4-((2-((2,4-dihydroxyphenyl)amino)pyrimidin-4-yl)oxy)naphthalen-1-yl)urea], the IC50 [1] was 189 nM, the “MTT Assay Cell viability” value ([2]; 4 h) was “−ve (−ve and +ve indicate the value is below and above respectively, the no significant effect threshold defined as 30% inhibition at 1 μg/mL at the time point indicated)” and the “MTT Assay Cell viability” value ([2]; 24 h) was “−ve (−ve and +ve indicate the value is below and above respectively, the no significant effect threshold defined as 30% inhibition at 1 μg/mL at the time point indicated)”. For the same compound, the IC50 [3] was over 1620 nM, the IC50 [4] was over 1620 nM and the “Mitosis Assay % inhibition in PBMC Cells” value ([5]; 5 μg/mL) was 33.0%. It also gave an IC50 [6] of 21 nM.

In the case of `CCOc1ccc(Nc2nccc(Oc3ccc(NC(=O)Nc4cc(C(C)(C)C)nn4-c4ccc(C)cc4)c4ccccc34)n2)cc1` [Example 22, 1-(3-(tert-butyl)-1-(p-tolyl)-1H-pyrazol-5-yl)-3-(4-((2-((4-ethoxyphenyl)amino)pyrimidin-4-yl)oxy)naphthalen-1-yl)urea], the IC50 [1] is reported as 281 nM, the “MTT Assay Cell viability” value ([2]; 4 h) is reported as “−ve (−ve and +ve indicate the value is below and above respectively, the no significant effect threshold defined as 30% inhibition at 1 μg/mL at the time point indicated)” and the “MTT Assay Cell viability” value ([2]; 24 h) is reported as “−ve (−ve and +ve indicate the value is below and above respectively, the no significant effect threshold defined as 30% inhibition at 1 μg/mL at the time point indicated)”. For the same compound, the IC50 [3] was over 1590 nM, the IC50 [4] was over 1590 nM and the “Mitosis Assay % inhibition in PBMC Cells” value ([5]; 5 μg/mL) was 70.8%. The IC50 [6] was 13 nM.

`COc1ccc(-n2nc(C(C)(C)C)cc2NC(=O)Nc2ccc(Oc3ccnc(Nc4ccc(O)cc4)n3)c3ccccc23)cc1` [Example 33, 1-(3-(tert-butyl)-1-(4-methoxyphenyl)-1H-pyrazol-5-yl)-3-(4-((2-((4-hydroxyphenyl)amino)pyrimidin-4-yl)oxy)naphthalen-1-yl)urea] was tested, and the IC50 [1] was 60 nM, the “MTT Assay Cell viability” value ([2]; 4 h) was “−ve (−ve and +ve indicate the value is below and above respectively, the no significant effect threshold defined as 30% inhibition at 1 μg/mL at the time point indicated)” and the “MTT Assay Cell viability” value ([2]; 24 h) was “−ve (−ve and +ve indicate the value is below and above respectively, the no significant effect threshold defined as 30% inhibition at 1 μg/mL at the time point indicated)”. For the same compound, the IC50 [3] was 264 nM, the IC50 [4] was 2380 nM and the “Mitosis Assay % inhibition in PBMC Cells” value ([5]; 5 μg/mL) was 67.2%. For the same compound, the IC50 [6] was 2.6 nM.

`COc1cc(Nc2nccc(Oc3ccc(NC(=O)Nc4cc(C(C)(C)C)nn4-c4ccc(C)cc4)c4ccccc34)n2)ccc1O` [Example 25, 1-(3-(tert-butyl)-1-(p-tolyl)-1H-pyrazol-5-yl)-3-(4-((2-((4-hydroxy-3-methoxyphenyl)amino)pyrimidin-4-yl)oxy)naphthalen-1-yl)urea] was tested, and the IC50 [1] was 77 nM, the “MTT Assay Cell viability” value ([2]; 4 h) was “−ve (−ve and +ve indicate the value is below and above respectively, the no significant effect threshold defined as 30% inhibition at 1 μg/mL at the time point indicated)” and the “MTT Assay Cell viability” value ([2]; 24 h) was “−ve (−ve and +ve indicate the value is below and above respectively, the no significant effect threshold defined as 30% inhibition at 1 μg/mL at the time point indicated)”. The IC50 [3] was 281 nM, the IC50 [4] was over 1590 nM and the “Mitosis Assay % inhibition in PBMC Cells” value ([5]; 1 μg/mL) was 29.1%. For the same compound, the “Mitosis Assay % inhibition in PBMC Cells” value ([5]; 5 μg/mL) was 63.5%, the “HRV CPE (MRC5) % inhibition” value [7] was 33%* and the IC50 [6] was 2.5 nM.

`COc1ccc(Nc2nccc(Oc3ccc(NC(=O)Nc4cc(C(C)(C)C)nn4-c4ccc(C)cc4)c4ccccc34)n2)c(OC)c1` [Example 8, 1-(3-(tert-butyl)-1-(p-tolyl)-1H-pyrazol-5-yl)-3-(4-((2-((2,4-dimethoxyphenyl)amino)pyrimidin-4-yl)oxy)naphthalen-1-yl)urea] was tested, and the IC50 [1] was 151 nM, the “MTT Assay Cell viability” value ([2]; 4 h) was “−ve (−ve and +ve indicate the value is below and above respectively, the no significant effect threshold defined as 30% inhibition at 1 μg/mL at the time point indicated)” and the “MTT Assay Cell viability” value ([2]; 24 h) was “−ve (−ve and +ve indicate the value is below and above respectively, the no significant effect threshold defined as 30% inhibition at 1 μg/mL at the time point indicated)”. The IC50 [3] was over 15500 nM, the IC50 [4] was over 15500 nM and the “Mitosis Assay % inhibition in PBMC Cells” value ([5]; 1 μg/mL) was 15.6%. It also gave an IC50 [6] of 22 nM.

For `COc1ccc(Nc2nccc(Oc3ccc(NC(=O)Nc4cc(C(C)(C)C)nn4-c4ccc(C)cc4)c4ccccc34)n2)cc1OC` [Example 27, 1-(3-(tert-butyl)-1-(p-tolyl)-1H-pyrazol-5-yl)-3-(4-((2-((3,4-dimethoxyphenyl)amino)pyrimidin-4-yl)oxy)naphthalen-1-yl)urea], the IC50 [1] was 105 nM, the “MTT Assay Cell viability” value ([2]; 4 h) was “+ve (−ve and +ve indicate the value is below and above respectively, the no significant effect threshold defined as 30% inhibition at 1 μg/mL at the time point indicated)” and the “MTT Assay Cell viability” value ([2]; 24 h) was “−ve (−ve and +ve indicate the value is below and above respectively, the no significant effect threshold defined as 30% inhibition at 1 μg/mL at the time point indicated)”. The IC50 [3] was 535 nM, the IC50 [4] was 2110 nM and the “Mitosis Assay % inhibition in PBMC Cells” value ([5]; 5 μg/mL) was 11.2%. For the same compound, the IC50 [6] was 1.6 nM.

For `Cc1ccc(-n2nc(C(C)(C)C)cc2NC(=O)Nc2ccc(Oc3ccnc(Nc4cccc(O)c4)n3)c3ccccc23)cc1` [Example 2, 1-(3-(tert-Butyl)-1-(p-tolyl)-1H-pyrazol-5-yl)-3-(4-((2-((3-hydroxyphenyl)amino)pyrimidin-4-yl)oxy)naphthalen-1-yl)urea], the “MTT Assay Cell viability” value ([2]; 4 h) was “−ve (−ve and +ve indicate the value is below and above respectively, the no significant effect threshold defined as 30% inhibition at 1 μg/mL at the time point indicated)”, the “MTT Assay Cell viability” value ([2]; 24 h) was “−ve (−ve and +ve indicate the value is below and above respectively, the no significant effect threshold defined as 30% inhibition at 1 μg/mL at the time point indicated)” and the IC50 [3] was 557 nM. For the same compound, the “Mitosis Assay % inhibition in PBMC Cells” value ([5]; 5 μg/mL) was 70.6%.
